Several values for one entry are separate records, joined by “and”; a condition that tells them apart may be missing. Equal values may be shown once.
Tested on: ANGIOTENSIN II (AII) VASOPRESSOR RESPONSE
Experiment: AII Challenge: % inhibition (angiotensin blockage) of angiotensin II vasopressor response in conscious SHR
Assay type: in vivo, rat (Male Okamoto-Aoki SHR)
Details: for Response After AII / Change / Control Before AII: individual rats
Description: By administering a compound of this invention to a rat, and then challenging with angiotensin II, a blockage of the vasopressor response is realized. The results of this test on representative compounds of this invention are shown in Table V. Conscious Male Okamoto-Aoki SHR, 16-20 weeks old, weighing approximately 330 g are purchased from Charles River Labs (Wilmington, MA). Conscious rats are restrained in a supine position with elastic tape. The area at the base of the tail is locally anesthetized by subcutaneous infiltration with 2% procaine. The central caudal artery and vein are isolated, and a cannula made of polyethylene (PE) 10-20 tubing (fused together by heat) is passed into the lower abdominal aorta and vena cava, respectively. The cannula is secured, heparinized (1,000 I.U./ml), sealed and the wound is closed. The animals are placed in plastic restraining cages in an upright position. The cannula is attached to a Statham P23Db pressure transducer, and pulsatile blood pressure is recorded to 10-15 minutes with a Gould Brush recorder. (Chan et al., (Drug Development Res., 18:75-94, 1989). Angiotensin II (human sequence, Sigma Chem. Co., St. Louis, MO) of 0.05 and 0.1 ug/kg i.v. is injected into all rats (predosing repsonse). Then a test compound, vehicle or a known angiotensin II antagonist is administered i.v., i.p. or orally to each set of rats. The two doses of angiotensin II are given to each rat again at 30, 60, 90, 120, 180, 240 and 300 minutes post dosing the compound or vehicle. The vasopressor response of angiotensin II is measured for the increase in systolic blood pressure in mmHg. The percentage of antagonism or blockade of the vasopressor response of angiotensin II by a compound is calculated using the vasopressor response (increase in systolic blood pressure) of angiotensin II of each rat predosing the compound as 100%. A compound is considered active if at 30 mg/kg i.v. it antagonized at least 50% of the response.

[1] = 5 mg/kg IV, AII 0.05 mcg/kg IV, 30 min post dose
[2] = 5 mg/kg IV, AII 0.05 mcg/kg IV, 30 min post dose, monohydrochloride
[3] = 5 mg/kg IV, AII 0.05 mcg/kg IV, 60 min post dose
[4] = 5 mg/kg IV, AII 0.05 mcg/kg IV, 60 min post dose, monohydrochloride
[5] = 5 mg/kg IV, AII 0.05 mcg/kg IV, 90 min post dose
[6] = 5 mg/kg IV, AII 0.05 mcg/kg IV, 90 min post dose, monohydrochloride
[7] = 5 mg/kg IV, AII 0.05 mcg/kg IV, 120 min post dose
[8] = 5 mg/kg IV, AII 0.05 mcg/kg IV, 120 min post dose, monohydrochloride
[9] = 5 mg/kg IV, AII 0.05 mcg/kg IV, 180 min post dose
[10] = 5 mg/kg IV, AII 0.05 mcg/kg IV, 180 min post dose, monohydrochloride
[11] = 5 mg/kg IV, AII 0.1 mcg/kg IV, 30 min post dose
[12] = 5 mg/kg IV, AII 0.1 mcg/kg IV, 30 min post dose, monohydrochloride
[13] = 5 mg/kg IV, AII 0.1 mcg/kg IV, 60 min post dose
[14] = 5 mg/kg IV, AII 0.1 mcg/kg IV, 60 min post dose, monohydrochloride
[15] = 5 mg/kg IV, AII 0.1 mcg/kg IV, 90 min post dose
[16] = 5 mg/kg IV, AII 0.1 mcg/kg IV, 90 min post dose, monohydrochloride
[17] = 5 mg/kg IV, AII 0.1 mcg/kg IV, 120 min post dose
[18] = 5 mg/kg IV, AII 0.1 mcg/kg IV, 120 min post dose, monohydrochloride
[19] = 5 mg/kg IV, AII 0.1 mcg/kg IV, 180 min post dose
[20] = 5 mg/kg IV, AII 0.1 mcg/kg IV, 180 min post dose, monohydrochloride
[21] = 10 mg/kg P.O., AII 0.05 mcg/kg IV, 30 min post dose
[22] = 10 mg/kg P.O., AII 0.05 mcg/kg IV, 30 min post dose, monohydrochloride
[23] = 10 mg/kg P.O., AII 0.05 mcg/kg IV, 60 min post dose
[24] = 10 mg/kg P.O., AII 0.05 mcg/kg IV, 60 min post dose, monohydrochloride
[25] = 10 mg/kg P.O., AII 0.05 mcg/kg IV, 90 min post dose
[26] = 10 mg/kg P.O., AII 0.05 mcg/kg IV, 90 min post dose, monohydrochloride
[27] = 10 mg/kg P.O., AII 0.05 mcg/kg IV, 120 min post dose
[28] = 10 mg/kg P.O., AII 0.05 mcg/kg IV, 120 min post dose, monohydrochloride
[29] = 10 mg/kg P.O., AII 0.05 mcg/kg IV, 180 min post dose
[30] = 10 mg/kg P.O., AII 0.05 mcg/kg IV, 180 min post dose, monohydrochloride
[31] = 10 mg/kg P.O., AII 0.1 mcg/kg IV, 30 min post dose
[32] = 10 mg/kg P.O., AII 0.1 mcg/kg IV, 30 min post dose, monohydrochloride
[33] = 10 mg/kg P.O., AII 0.1 mcg/kg IV, 60 min post dose
[34] = 10 mg/kg P.O., AII 0.1 mcg/kg IV, 90 min post dose
[35] = 10 mg/kg P.O., AII 0.1 mcg/kg IV, 120 min post dose
[36] = 10 mg/kg P.O., AII 0.1 mcg/kg IV, 120 min post dose, monohydrochloride
[37] = 10 mg/kg P.O., AII 0.1 mcg/kg IV, 180 min post dose
[38] = 10 mg/kg P.O., AII 0.1 mcg/kg IV, 180 min post dose, monohydrochloride

## CCCCc1nc2ccc(COc3ccccn3)cc2c(=O)n1Cc1ccc(-c2ccccc2-c2nnn[nH]2)cc1.Cl [Example 12, 2-Butyl-6-[(2-pyridinyloxy)methyl]-3-[[2'-(1H-tetrazol-5-yl)[1,1'-biphenyl]-4-yl]methyl]-4(3H)-quinazolinone monohydrochloride]
[1]
  % Inhibition: 62%
  Average Change: 12.5 mmHg
  Response After AII: 195 mmHg
[2]
  Change: 10 mmHg and 15 mmHg
  Control Before AII: 185 mmHg and 180 mmHg
[3]
  % Inhibition: 92%
  Average Change: 2.5 mmHg
  Control Before AII: 175 mmHg
  Response After AII: 180 mmHg
[4]
  Change: 0 mmHg and 5 mmHg
  Response After AII: 175 mmHg
[5]
  % Inhibition: 69%
  Average Change: 10 mmHg
  Change: 10 mmHg
  Response After AII: 170 mmHg
[6]
  Control Before AII: 160 mmHg and 165 mmHg
  Response After AII: 175 mmHg
[7]
  % Inhibition: 77%
  Average Change: 7.5 mmHg
  Control Before AII: 165 mmHg
  Response After AII: 170 mmHg
[8]
  Change: 10 mmHg and 5 mmHg
  Response After AII: 175 mmHg
[9]
  % Inhibition: 66%
  Average Change: 11 mmHg
[10]
  Change: 7 mmHg and 15 mmHg
  Control Before AII: 165 mmHg and 155 mmHg
  Response After AII: 172 mmHg and 170 mmHg
[11]
  % Inhibition: 65%
  Average Change: 15 mmHg
  Control Before AII: 185 mmHg
  Response After AII: 195 mmHg
[12]
  Change: 10 mmHg and 20 mmHg
  Control Before AII: 175 mmHg
[13]
  % Inhibition: 71%
  Average Change: 12.5 mmHg
  Response After AII: 185 mmHg
[14]
  Change: 15 mmHg and 10 mmHg
  Control Before AII: 170 mmHg and 175 mmHg
[15]
  % Inhibition: 76%
  Average Change: 10 mmHg
  Change: 10 mmHg
[16]
  Control Before AII: 160 mmHg and 170 mmHg
  Response After AII: 170 mmHg and 180 mmHg
[17]
  % Inhibition: 65%
  Average Change: 15 mmHg
  Control Before AII: 165 mmHg
[18]
  Change: 20 mmHg and 10 mmHg
  Response After AII: 185 mmHg and 175 mmHg
[19]
  % Inhibition: 51%
  Average Change: 21 mmHg
  Control Before AII: 160 mmHg
[20]
  Change: 20 mmHg and 22 mmHg
  Response After AII: 180 mmHg and 182 mmHg
[21]
  % Inhibition: 56%
  Average Change: 17.5 mmHg
  Control Before AII: 185 mmHg
  Response After AII: 210 mmHg
[22]
  Change: 25 mmHg and 10 mmHg
  Control Before AII: 200 mmHg
[23]
  % Inhibition: 44%
  Average Change: 22.5 mmHg
  Control Before AII: 185 mmHg
  Response After AII: 220 mmHg
[24]
  Change: 25 mmHg and 20 mmHg
  Control Before AII: 195 mmHg
  Response After AII: 205 mmHg
[25]
  % Inhibition: 59%
  Average Change: 16.5 mmHg
  Control Before AII: 195 mmHg
[26]
  Change: 30 mmHg and 3 mmHg
  Control Before AII: 190 mmHg
  Response After AII: 220 mmHg and 198 mmHg
[27]
  % Inhibition: 69%
  Average Change: 12.5 mmHg
  Control Before AII: 210 mmHg
  Response After AII: 230 mmHg
[28]
  Change: 20 mmHg and 5 mmHg
  Response After AII: 215 mmHg
[29]
  % Inhibition: 50%
  Average Change: 20 mmHg
  Control Before AII: 185 mmHg
[30]
  Change: 25 mmHg and 15 mmHg
  Response After AII: 210 mmHg and 200 mmHg
[31]
  % Inhibition: 34%
  Average Change: 27.5 mmHg
  Response After AII: 220 mmHg
[32]
  Change: 35 mmHg and 20 mmHg
  Control Before AII: 185 mmHg and 200 mmHg
[33]
  % Inhibition: 16%
  Average Change: 35 mmHg
  Change: 35 mmHg
  Control Before AII: 185 mmHg
  Response After AII: 220 mmHg
[34]
  % Inhibition: 28%
  Average Change: 30 mmHg
  Change: 30 mmHg
  Control Before AII: 190 mmHg
  Response After AII: 220 mmHg
[35]
  % Inhibition: 52%
  Average Change: 20 mmHg
  Control Before AII: 205 mmHg
  Response After AII: 235 mmHg
[36]
  Change: 30 mmHg and 10 mmHg
  Response After AII: 215 mmHg
[37]
  % Inhibition: 40%
  Average Change: 25 mmHg
  Response After AII: 210 mmHg
[38]
  Change: 35 mmHg and 15 mmHg
  Control Before AII: 190 mmHg and 195 mmHg
  Response After AII: 225 mmHg
